Results: PubChem BioAssay AID234 (DTP/NCI, 2004)
“And” between values parts separate entries of the source, which are not always exact repeats. Equal values may be shown once. Records with an inconclusive call do not appear.

Tested on: C3AKF1 mice, hamster liver cystadenocarcinoma s.c., tumor weight T/C
Experiment: NCI In Vivo Anticancer Drug Screen. Data for tumor model Cystadenocarcinoma, Liver (No. 1) (Hamster) (subcutaneous) in C3AKF1 (CHKRF1) mice
Details: endpoint: mean tumor weight, schedule: Q01DX010 (ip), higher = larger tumour
Procedure: The antitumor activity of compounds was measured in mice bearing transplantable tumors. Survival or tumor size were measured and the results are expressed as the measurement made in the treated group (T) divided by the measurement made in the vehicle treated control group (C). The tumor model used in this assay is Cystadenocarcinoma, Liver (No. 1) (Hamster) (subcutaneous) in C3AKF1 (CHKRF1) mice

[1] = dose: 125.0 mg/kg/injection, vehicle: carboxymethylcellulose (CMC)
[2] = dose: 250.0 mg/kg/injection, vehicle: carboxymethylcellulose (CMC)
[3] = dose: 0.5 mg/kg/injection, vehicle: carboxymethylcellulose (CMC)
[4] = dose: 1.0 mg/kg/injection, vehicle: carboxymethylcellulose (CMC)
[5] = dose: 2.0 mg/kg/injection, vehicle: carboxymethylcellulose (CMC)
[6] = dose: 4.0 mg/kg/injection, vehicle: carboxymethylcellulose (CMC)
[7] = dose: 37.5 mg/kg/injection, vehicle: carboxymethylcellulose (CMC)
[8] = dose: 75.0 mg/kg/injection, vehicle: carboxymethylcellulose (CMC)
[9] = dose: 150.0 mg/kg/injection, vehicle: carboxymethylcellulose (CMC)
[10] = dose: 300.0 mg/kg/injection, vehicle: carboxymethylcellulose (CMC)
[11] = dose: 100.0 mg/kg/injection, vehicle: carboxymethylcellulose (CMC)
[12] = dose: 12.5 mg/kg/injection, vehicle: carboxymethylcellulose (CMC)
[13] = dose: 25.0 mg/kg/injection, vehicle: carboxymethylcellulose (CMC)
[14] = dose: 50.0 mg/kg/injection, vehicle: carboxymethylcellulose (CMC)
[15] = dose: 20.0 mg/kg/injection, vehicle: carboxymethylcellulose (CMC)
[16] = dose: 40.0 mg/kg/injection, vehicle: carboxymethylcellulose (CMC)
[17] = dose: 15.0 mg/kg/injection, vehicle: carboxymethylcellulose (CMC)
[18] = dose: 30.0 mg/kg/injection, vehicle: carboxymethylcellulose (CMC)
[19] = dose: 60.0 mg/kg/injection, vehicle: carboxymethylcellulose (CMC)
[20] = dose: 1.5 mg/kg/injection, vehicle: carboxymethylcellulose (CMC)
[21] = dose: 3.0 mg/kg/injection, vehicle: carboxymethylcellulose (CMC)
[22] = dose: 6.0 mg/kg/injection, vehicle: carboxymethylcellulose (CMC)

COc1cc(OC)c(OC)cc1/C=C\c1ccnc2ccccc12
T/C (dose: 63.0 mg/kg/injection, vehicle: carboxymethylcellulose (CMC)): 104 % of control | T/C [1]: 97 % of control | T/C [2]: 95 % of control

O=S(=O)(O)C(Nc1ccccc1)c1ccccc1 (stereo not given)
T/C (dose: 100.0 mg/kg/injection, vehicle: water): 88 % of control | T/C (dose: 200.0 mg/kg/injection, vehicle: water): 66 % of control | T/C (dose: 400.0 mg/kg/injection, vehicle: water): 84 % of control

O=P(N1CC1)(N1CC1)N1CC1
T/C [3]: 93 % of control | T/C [4]: 65 % of control | T/C [5]: 71 % of control | T/C [6]: 48 % of control

O=C(O)Cc1ccc(C2CCCCC2)cc1
T/C [7]: 118 % of control | T/C [8]: 115 % of control | T/C [9]: 114 % of control and 121 % of control | T/C [10]: 94 % of control

CC(CCc1cccc2ccccc12)(C(=O)O)C(=O)O
T/C [11]: 96 % of control

CCCCCCCCCC(C)(O)C#CC(C)(O)CCCCCCCCC (stereo not given)
T/C [12]: 86 % of control | T/C [13]: 74 % of control | T/C [14]: 96 % of control | T/C [11]: 64 % of control

NC(CCSCc1ccc(N(CCCl)CCCl)cc1)C(=O)O (stereo not given)
T/C (dose: 4.5 mg/kg/injection, vehicle: saline): 90 % of control | T/C (dose: 9.0 mg/kg/injection, vehicle: saline): 94 % of control | T/C (dose: 16.0 mg/kg/injection, vehicle: saline): 84 % of control | T/C (dose: 18.0 mg/kg/injection, vehicle: saline): 52 % of control | T/C (dose: 24.0 mg/kg/injection, vehicle: saline): 63 % of control | T/C (dose: 36.0 mg/kg/injection, vehicle: saline): 55 % of control

O=C(O)c1ccc(-c2ccccc2)cc1
T/C [14]: 95 % of control | T/C [11]: 49 % of control

O=CC(O)CO (stereo not given)
T/C [1]: 120 % of control | T/C [2]: 108 % of control

CCN(CC)CC(C)Nc1ccc(C)c2sc3ccccc3c(=O)c12 (stereo not given)
T/C [13]: 98 % of control | T/C [14]: 87 % of control | T/C [11]: 76 % of control

O=C(O)CC(O)(CC(=O)O)C(=O)O.[Ga]
T/C [12]: 123 % of control | T/C [13]: 96 % of control | T/C [14]: 79 % of control

CN(C)Nc1ncnc2nc[nH]c12
T/C [15]: 107 % of control | T/C [16]: 102 % of control

CCOC(=O)Sc1ncnc2nc[nH]c12
T/C (dose: 14.0 mg/kg/injection, vehicle: carboxymethylcellulose (CMC)): 87 % of control | T/C (dose: 28.0 mg/kg/injection, vehicle: carboxymethylcellulose (CMC)): 84 % of control | T/C (dose: 56.0 mg/kg/injection, vehicle: carboxymethylcellulose (CMC)): 86 % of control

Oc1ccc2ccccc2c1N=Nc1ccccc1
T/C [13]: 102 % of control | T/C [14]: 84 % of control | T/C [11]: 75 % of control | T/C (dose: 200.0 mg/kg/injection, vehicle: carboxymethylcellulose (CMC)): 72 % of control

CS(=O)(=O)OCC(=O)NCCNC(=O)COS(C)(=O)=O
T/C [15]: 105 % of control | T/C [16]: 100 % of control

CC(=O)Nc1ccc(NC(=O)c2ccc([As](O)O)cc2)cc1
T/C [17]: 60 % of control | T/C [18]: 77 % of control | T/C [19]: 92 % of control | T/C (dose: 120.0 mg/kg/injection, vehicle: carboxymethylcellulose (CMC)): 91 % of control

Clc1ccc(N2CCN(CCCN3CCN(c4cccc(Cl)c4)CC3)CC2)cc1
T/C (dose: 7.5 mg/kg/injection, vehicle: carboxymethylcellulose (CMC)): 71 % of control | T/C [17]: 62 % of control | T/C [18]: 52 % of control | T/C [19]: 69 % of control

O=C(C[N+]12CN3CN(CN(C3)C1)C2)c1ccc(Cl)cc1
T/C [7]: 99 % of control | T/C [8]: 109 % of control | T/C [9]: 90 % of control | T/C [10]: 69 % of control

C1CC[N-]CC1.C1CC[N-]CC1.C1CC[N-]CC1.C1CC[N-]CC1.[Cl][Co][Cl]
T/C (dose: 35.0 mg/kg/injection, vehicle: saline): 84 % of control | T/C (dose: 55.0 mg/kg/injection, vehicle: saline): 82 % of control | T/C (dose: 80.0 mg/kg/injection, vehicle: saline): 71 % of control

Nc1nc(SCc2ccccc2)c2ncn(C3CCCC3)c2n1
T/C (dose: 62.0 mg/kg/injection, vehicle: carboxymethylcellulose (CMC)): 120 % of control | T/C [1]: 98 % of control | T/C [2]: 91 % of control | T/C (dose: 500.0 mg/kg/injection, vehicle: carboxymethylcellulose (CMC)): 81 % of control

CS(=O)(=O)OCCCOS(C)(=O)=O
T/C [17]: 53 % of control | T/C [18]: 79 % of control | T/C [19]: 53 % of control

CSc1ncc(Br)c(Sc2nc(N)nc3nc[nH]c23)n1
T/C [20]: 106 % of control | T/C [21]: 117 % of control | T/C [22]: 92 % of control | T/C (dose: 12.0 mg/kg/injection, vehicle: carboxymethylcellulose (CMC)): 74 % of control and 85 % of control and 92 % of control | T/C (dose: 18.0 mg/kg/injection, vehicle: carboxymethylcellulose (CMC)): 103 % of control | T/C (dose: 27.0 mg/kg/injection, vehicle: carboxymethylcellulose (CMC)): 77 % of control and 81 % of control | T/C [16]: 65 % of control

O=C(Nc1ccc(C2=NCCN2)cc1)c1ccc(C(=O)Nc2ccc(C3=NCCN3)cc2)c(Cl)c1
T/C (dose: 5.0 mg/kg/injection, vehicle: saline): 83 % of control | T/C (dose: 10.0 mg/kg/injection, vehicle: saline): 114 % of control | T/C (dose: 20.0 mg/kg/injection, vehicle: saline): 80 % of control

O=C1C=CC(=Nc2ccc(O)c3ncccc23)c2cccnc21
T/C [22]: 95 % of control

CCCCn1cnc2c(=S)nc(N)[nH]c21
T/C [4]: 82 % of control | T/C (dose: 7.0 mg/kg/injection, vehicle: carboxymethylcellulose (CMC)): 60 % of control and 77 % of control | T/C [17]: 50 % of control | T/C [18]: 49 % of control

C=CCn1c(=O)n(CC=C)c(=O)n(CC=C)c1=O
T/C (dose: 22.5 mg/kg/injection, vehicle: saline): 76 % of control | T/C (dose: 45.0 mg/kg/injection, vehicle: saline): 63 % of control | T/C (dose: 90.0 mg/kg/injection, vehicle: saline): 63 % of control

COC(=S)SCN(CSC(=S)OC)c1ccccc1Cl
T/C (dose: 125.0 mg/kg/injection, vehicle: saline): 99 % of control | T/C (dose: 250.0 mg/kg/injection, vehicle: saline): 84 % of control | T/C (dose: 500.0 mg/kg/injection, vehicle: saline): 111 % of control

COc1ccc(Nc2ccnc3cc(Cl)ccc23)cc1CN(CCCl)CCCl
T/C [3]: 95 % of control | T/C [4]: 91 % of control | T/C [5]: 93 % of control | T/C [6]: 70 % of control

CC1CN1C(=O)c1cc(C(=O)N2CC2C)cc(C(=O)N2CC2C)c1 (stereo not given)
T/C [17]: 83 % of control | T/C [18]: 84 % of control | T/C [19]: 118 % of control

C/C=C1\CN(C)[C@H]2Cc3c([nH]c4ccccc34)[C@@H](c3cc4[nH]c5c(c4cc3OC)CCN3C[C@H]4C[C@H](CC)[C@H]3[C@@]5(C(=O)OC)C4)C[C@H]1C2C(=O)OC (stereo not given in full)
T/C (dose: 30.0 mg/kg/injection, vehicle: water): 70 % of control

Cc1nc(N)nc(N)c1-c1ccc(Cl)c(Cl)c1
T/C (dose: 0.75 mg/kg/injection, vehicle: carboxymethylcellulose (CMC)): 83 % of control | T/C [20]: 106 % of control | T/C [21]: 100 % of control
